Test results from PMC8406801, “Naringenin Inhibits Platelet Activation and Arterial Thrombosis Through Inhibition of Phosphoinositide 3-Kinase and Cyclic Nucleotide Signaling” (Frontiers in Pharmacology, 2021).
Values joined by “and” are separate entries in the source; they are usually repeats but may differ in a detail not shown here. Equal entries are not always repeated. Where two headings read alike, the source gives them in different places.

Assays:
washed rat platelets = experiment: Collagen (2 μg/ml)-induced aggregation of washed platelets; format: cell-based; details: for Aggregation (%) / Aggregation % of control: washed platelets, single replicates; for Aggregation (%): raw data
Description: Washed rat platelets were prepared as described previously ([Gao et al., 2011]) with a minor modification. Briefly, rat blood was drawn from the abdominal aorta into the siliconized vacutainers containing 1:9 (v/v) 3.8% sodium citrate, supplemented with 100 ng/ml prostaglandin E1 (PGE1) and centrifuged at 300 × g for 6 min at room temperature. Platelet-rich plasma (PRP) was obtained, and after the addition of 100 ng/ml PGE1, platelets were pelleted at 900 × g for 10 min. Platelets were washed once in Tyrode’s buffer (12 mM NaHCO3, 138 mM NaCl, 5.5 mM glucose, 2.9 mM KCl, 2 mM MgCl2, 0.42 mM NaH2PO4, 10 mM HEPES, pH 7.4) containing 100 ng/ml PGE1, and finally resuspended in Tyrode’s buffer containing 0.02 U/mL apyrase to a final concentration of 4×10^8 cells/mL. Washed platelets were preincubated with vehicle (0.4% dimethyl sulfoxide) or various concentrations of naringenin in the presence of 2 mM CaCl2 for 5 min at 37°C, and then further stimulated by ADP (10 μM), thrombin (0.2 U/mL) or collagen (2 μg/ml). The maximum platelet aggregation rate was detected within 5 min with continuous stirring.
FIGURE 1 Effects of naringenin and naringin on platelet aggregation. Chemical structure of naringin (A) and naringenin (B). The effects of naringin (C) or naringenin (D) on PRP were measured following stimulation with 10 μmol/L ADP. Rat washed platelet aggregation performed with or without different concentrations of naringin (E) or naringenin (F) was recorded after stimulation with 10 μmol/L ADP. Similarly, Washed platelet aggregation performed with vehicle or various concentrations of naringenin was recorded after stimulation with 0.2 U/mL thrombin (G) or 2 μg/ml collagen (H). WP represents washed platelets. Data are expressed as means ± SD (n = 6), the level of aggregation obtained at 5 min with vehicle-treated samples (0 μM) was taken as 100%. *p < 0.05, **p < 0.01, ***p < 0.001 compared with the vehicle control group.

[1] = Cytotoxicity: LDH leakage from platelets; format: cell-based; details: rat
Description: To assess the potential cytotoxicity of naringenin, lactate dehydrogenase (LDH) leakage from platelets were determined. Washed platelets were preincubated with either various concentrations of naringenin or vehicle at 37°C for 5 min and then centrifuged at 350 × g for 3 min at room temperature. The supernatant was detected by LDH assay kit (Beyotime Biotechnology, Shanghai, China). LDH leakage was expressed as percentages of the total LDH leakage in platelets completely lysed with 0.1% Triton X-100.

ERK1/2 phosphorylation = experiment: Ex vivo immunoblotting of phospho-ERK1/2 in ADP-stimulated PRP of treated rats; design: species or system rat; details: for p-ERK1/2 / t-ERK (Fold to Control) / p-ERK1/2 / t-ERK (raw data): ex vivo, Figure 8E
Description: Male SD rats were randomly divided into 5 groups with 6 rats in each group. […] Sixty minutes after the last sample treatment, blood was drawn from the abdominal aorta of rats into the siliconized vacutainers containing 1:9 (v/v) 3.8% sodium citrate. The collected blood was centrifuged at 100 × g for 10 min at room temperature to obtain PRP. […] The platelet counts of PRP were adjusted to 4×10^8 cells/mL using PPP. PRP was incubated for 5 min at 37°C and then stimulated by ADP (5 μM). The maximum platelet aggregation rate was determined as mentioned above.
For in vitro platelet aggregation, aliquots of washed platelets were preincubated with vehicle or various concentrations of naringenin for 5 min and stimulated with ADP (10 μmol/L) under stirring at 37°C for 5 min. For ex vivo platelet aggregation, PRP was incubated at 37°C for 5 min and stimulated with ADP (5 μmol/L) under stirring at 37 °C. The platelet aggregation was terminated by adding ethylenediaminetetraacetic acid (EDTA; 10 mM). Total protein was prepared using RIPA lysis buffer and protein content was determined by bicinchoninic acid (BCA) protein assay kit. Equal amounts of platelet proteins (30 μg) were separated on 10% SDS polyacrylamide gel electrophoresis (SDS-PAGE) and then transferred to poly vinylidene difluoride (PVDF) membranes and subjected to western blot. Blots were blocked with TBS-Tween 20 containing 5% BSA and probed with primary antibodies diluted in blocking solution at 4°C overnight followed by incubation with the corresponding HRP secondary antibodies. The protein bands were visualized using enhanced chemiluminescence (ECL).
Blood was collected and PRP was obtained after the last treatment. Platelet aggregation was induced by ADP (5 μmol/L) (A). Data are expressed as means ± SD (n = 6). After ADP stimulation, platelet proteins were then extracted and analyzed by immunoblotting using PI3Kp110β antibody (B) and phospho-specific antibodies such as Akt^Ser473 (C), Akt^Thr308 (D) and ERK1/2^Thr202/Tyr204 (E). Total level of GAPDH was measured on each sample as a loading control. The blots shown are representative of three separate experiments. The relative protein expression levels were quantified by ImageJ 1.47v software. The level of relative protein expression obtained with vehicle control was taken as 1. R represents the level of relative protein expression in resting platelets. Data are expressed as means ± SD (n = 3). *p < 0.05, **p < 0.01, ***p < 0.001 compared with the vehicle control group (Con).
To further investigate the antiplatelet mechanisms of naringenin ex vivo, several signaling molecules such as PI3Kp110β, Akt and ERK were detected. After oral administration of naringenin (200, 400, and 800 mg/kg) to rats for 7 days, rat PRP was prepared and stimulated by ADP (5 μmol/L), and platelets were lysed to determine protein phosphorylation levels using western blot.

**Q.** For `O=C1C[C@@H](c2ccc(O)cc2)Oc2cc(O)cc(O)c21` [Naringenin], which IC50 (washed rat platelets) is on record?
**A.** ~236 µM

**Q.** And the IC50 (washed rat platelets; Rattus norvegicus, Platelet)?
**A.** 236 ± 33.1 µM

**Q.** What about the “Aggregation (%)” value (washed rat platelets; 100 μM) of the same compound?
**A.** 32.0% and 39.6% and 43.9% and 35.0% and 27.0% and 45.0%

**Q.** And the “Aggregation % of control” value (washed rat platelets; 100 μM)?
**A.** 75.4 % of control and 93.4 % of control and 103.5 % of control and 82.5 % of control and 63.6 % of control and 106.1 % of control

**Q.** And the “Aggregation (%)” value (washed rat platelets; 200 μM)?
**A.** 24.1% and 37.0% and 14.9% and 25.4% and 24.3% and 10.0%

**Q.** And the “Aggregation % of control” value (washed rat platelets; 200 μM)?
**A.** 56.8 % of control and 87.2 % of control and 35.1 % of control and 59.9 % of control and 57.3 % of control and 23.6 % of control

**Q.** And the “Aggregation (%)” value (washed rat platelets; 400 μM)?
**A.** 10.0% and 14.0% and 11.7% and 7.9% and 15.4% and 4.9%

**Q.** What about the “Aggregation % of control” value (washed rat platelets; 400 μM) of the same compound?
**A.** 23.6 % of control and 33.0 % of control and 27.6 % of control and 18.6 % of control and 36.3 % of control and 11.6 % of control

**Q.** And the “Aggregation (%)” value (washed rat platelets; 800 μM)?
**A.** 7.3% and 9.1% and 9.0% and 4.9% and 4.2% and 14.0%

**Q.** What about the “Aggregation % of control” value (washed rat platelets; 800 μM) of the same compound?
**A.** 17.2 % of control and 21.5 % of control and 21.2 % of control and 11.6 % of control and 9.9 % of control and 33.0 % of control

**Q.** And the cytotoxicity at 5 min, 100 µM ([1]; Cytotoxicity (%))?
**A.** 0.99 ± 0.21%

**Q.** What about the cytotoxicity at 5 min, 200 µM ([1]; Cytotoxicity (%)) of the same compound?
**A.** 1.16 ± 0.39%

**Q.** And the cytotoxicity at 5 min, 400 μM ([1]; Cytotoxicity (%))?
**A.** 2.11 ± 0.81%

**Q.** What about the cytotoxicity at 5 min, 800 μM ([1]; Cytotoxicity (%)) of the same compound?
**A.** 2.5 ± 0.85%

**Q.** And the cytotoxicity at 5 min, 400 μM ([1]; washed platelets, naringenin 400 μM, LDH leakage, Table 1, read-out: Cytotoxicity (%))?
**A.** 1.94%

**Q.** What about the cytotoxicity at 5 min, 800 μM ([1]; washed platelets, naringenin 800 μM, LDH leakage, Table 1, read-out: Cytotoxicity (%)) of the same compound?
**A.** 1.94%

**Q.** What about the “p-ERK1/2 / t-ERK (Fold to Control)” value (ERK1/2 phosphorylation; naringenin 200mg/kg) of the same compound?
**A.** 0.4913 and 0.9007 and 0.8159

**Q.** What about the “p-ERK1/2 / t-ERK (raw data)” value (ERK1/2 phosphorylation; naringenin 200mg/kg) of the same compound?
**A.** 0.4317 and 0.7915 and 0.7170

**Q.** What about the “p-ERK1/2 / t-ERK (Fold to Control)” value (ERK1/2 phosphorylation; naringenin 800mg/kg) of the same compound?
**A.** 0.4112 and 0.5367 and 0.7060

**Q.** What about the “p-ERK1/2 / t-ERK (raw data)” value (ERK1/2 phosphorylation; naringenin 800mg/kg) of the same compound?
**A.** 0.3613 and 0.4716 and 0.6204

**Q.** And the “phosphorylation of ERK in rat PRP ex vivo” value (ERK1/2 phosphorylation; rats, oral 200, 400, and 800 mg/kg for 7 days, ADP 5 μmol/L)?
**A.** significantly suppressed
